Results published in patent US9320271B2, “Microbial composition” (Rohm and Haas Company, priority 2011, dated 2016).
“And” between values parts separate entries of the source, which are not always exact repeats. Equal entries are not always repeated.

What was measured:
[1] = tested on: Escherichia coli (E. coli—ATCC #10536); assay: Synergy test: high resolution MBC microtiter plate assay, phosphate buffer containing 35% dipropylene glycol, 15 seconds contact; assay type: cell-based; details: E. coli 10536
Description: The concentrations and ratios may also vary under different test conditions or with different test methods.
One measure of synergy is the industrially accepted method described by Kull, F. C.; Eisman, P. C.; Sylwestrowicz, H. D, and Mayer, R. L., in Applied Microbiology 9:538-541 (1961), using the ratio determined by the formula: […]=Synergy Index (“SI”) wherein; QA=concentration of compound A (first component) in percent, acting alone, which produced an end point (MBC of Compound A). Qa=concentration of compound A in percent, in the mixture, which produced an end point. QB=concentration of compound B (second component) in percent, acting alone, which, produced an end point (MBC of Compound B). Qb=concentration of compound B in percent, in the mixture, which produced an end point.
When the sum of Qa/QA and Qb/QB is greater than one, antagonism is indicated. […] The lower the SI, the greater is the synergy shown by that particular mixture. The minimum biocidal concentration (MBC) of a microbicide is the lowest concentration tested under a specific set of conditions that provides complete kill of the tested microorganisms.
Synergy tests were conducted using standard microliter plate assays with phosphate buffer containing 35% dipropylene glycol (DPG). In this method, a wide range of combinations of chemicals was tested by conducting high resolution MBC assays of Component (A) in the presence of various concentrations of Component (B). High resolution MBCs were determined by adding varying amounts of microbicide to one column of a microliter plate and doing subsequent […] dilutions using an automated liquid handling, system to obtain a series of closely spaced endpoints. The MBC plate was inoculated one column at a time with the test microorganism. An aliquot of the inoculated well was transferred at 15 seconds to a plate containing a neutralizing agent (D/E Neutralizing Broth), mixed and held for 5 minutes before being transferred to a growth plate containing trypticase soy broth (TSB). The TSB plate was incubated at 37° C. and read for the presence/absence of growth at 24 hours. The lowest level tested that provided complete kill (as evidenced by no growth in the microtitre plate) of the test organisms in 15 seconds is the minimum biocidal concentration (MBC).
The synergy of the combinations of the present invention was determined against a bacterium, Escherichia coli (E. coli—ATCC #10536), at a concentration of approximately 1×10^8 it bacteria per mL. This microorganism is representative of natural contaminants in many consumer and industrial applications.

[2] = tested on: Staphylococcus aureus (10788 strain); assay: 15 second contact kill test / antimicrobial efficacy of actives against S. aureus in water; assay type: cell-based
Procedure: Selected materials were also tested against a representative Grant positive Staphylococcus aureus. An overnight culture of Staphylococcus aureus (10788 strain) was inoculated onto a […] Soy Agar (TSA) plate and grown for ca. 18 hrs at 37° C. The culture S. aureus was washed from the plate using sterile saline (0.85% NaCl) solution and a sterile spreader and suspended in 50 ml saline. This suspension was separated into equal volumes and centrifuged at 4000 rpm for 15 minutes. […] Here, OD620 indicates the absorbance of a sample in a cuvette of 1.0 cm path length at a wavelength of 620 nm. This bacterial stock was used for assaying against antimicrobial actives (in triplicate). The following assay describes the testing of 8 materials using 6 dilutions across half of a 96-well micro titre plate (MTP). Using this approach it is possible to assay 16 actives (without replicates) with one full dilution plate, replicating this set up in two halves of the plate columns, 1-6 and 7-12. 1M solutions of the test actives were prepared in dimethylsulphoxide (DMSO). […] Aliquots (270 μl) of the materials at 1.11 times the final concentration were dispensed into the wells of the MTP along one column (A1-H1). This MTP was labelled as the “Screening plate”. In another MTP, labelled as the “Dilution plate”, […] of D/E neutralising solution from DIFCO Composition was added to column 1. The composition of the neutralising solution was as follows: pancreatic digest of casein, 5.0 g/L; […] Dextrose, 10 g/L, sodium thioglycollate, 1.0 g/L, sodium thiosulphate, 6.0 g/L; sodium bisulphite, 2.5 g/L; […] […] From the colony number in this segment, NMBS is calculated by the formula: NMBS=log {Ncol·10^DF·100/3} Here, Ncol is the colony count, and DF is the dilution factor taken from the MTP-well corresponding to the TSA plate segment (i.e. DF may range from 1 for the quench, to 6 for the highest dilution). […] Here, OD620 indicates the absorbance of a sample in a cuvette of 1.0 cm path length at a wavelength, of 620 nm. […]

## C=C(C)C1CC=C(CO)CC1 (stereo not shown) [(4-(prop-1-en-2-yl)cyclohex-1-enyl)methanol]
[1]; at Qa and Qb, less than one = synergy
  SI (Synergy Index): 1.00
[1]; complete kill in 15 seconds, component alone
  MBC of the component acting alone (QA / QB; Qa or Qb where the other component is 0): 0.5 weight % and 0.3 weight %
[2]; 0.2% perillyl alcohol alone
  S. aureus 6538 Log Reduction: 0.22
[2]; 0.25 Perillyl alcohol alone
  S. aureus 6538 Log Reduction: 0.5
